Test results from ChEMBL document CHEMBL2440069, “Synthesis and biological evaluation of direct thrombin inhibitors bearing 4-(piperidin-1-yl)pyridine at the P1 position with potent anticoagulant activity” (J Med Chem, 2013).

Assays:
[1] = Dissociation constant, pKa of the compound by potentiometric titration; assay type: physicochemical
[2] = Permeability of the compound at pH 6.8 by PAMPA assay; assay type: ADME
[3] = target: Prothrombin (Bos taurus, UniProt P00735); assay: Inhibition of bovine thrombin using D-Phe-Pip-Arg-p-NA as substrate by chromogenic assay
[4] = Permeability of the compound at pH 8 by PAMPA assay; assay type: ADME
[5] = target: Coagulation factor X (Homo sapiens, UniProt P00742); assay: Inhibition of human factor 10a using Z-D-Arg-Gly-Arg-p-NA as substrate by chromogenic assay
Coagulation factor X, sequence (P00742 41-179 limits assumed): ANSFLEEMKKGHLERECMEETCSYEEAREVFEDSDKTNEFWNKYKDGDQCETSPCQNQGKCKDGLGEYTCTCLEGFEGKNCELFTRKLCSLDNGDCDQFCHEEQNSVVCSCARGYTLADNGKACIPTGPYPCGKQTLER
Coagulation factor X, sequence (P00742 235-488 limits assumed): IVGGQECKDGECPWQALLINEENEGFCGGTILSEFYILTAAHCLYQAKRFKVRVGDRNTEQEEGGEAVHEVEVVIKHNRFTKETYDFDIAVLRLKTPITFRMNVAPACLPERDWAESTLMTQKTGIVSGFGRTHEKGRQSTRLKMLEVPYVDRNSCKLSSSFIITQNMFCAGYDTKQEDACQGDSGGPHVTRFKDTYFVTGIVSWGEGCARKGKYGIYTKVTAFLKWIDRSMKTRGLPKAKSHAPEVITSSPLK

[6] = tested on: Plasma; assay: Anticoagulant activity in human plasma assessed as concentration required to double activated […] time; assay type: functional
[7] = target: T1, Coagulation factor VII (Homo sapiens, UniProt P08709); assay: Inhibition of human recombinant factor 7a using spectrozyme as substrate by chromogenic assay
T1 sequence (P08709 whole entry): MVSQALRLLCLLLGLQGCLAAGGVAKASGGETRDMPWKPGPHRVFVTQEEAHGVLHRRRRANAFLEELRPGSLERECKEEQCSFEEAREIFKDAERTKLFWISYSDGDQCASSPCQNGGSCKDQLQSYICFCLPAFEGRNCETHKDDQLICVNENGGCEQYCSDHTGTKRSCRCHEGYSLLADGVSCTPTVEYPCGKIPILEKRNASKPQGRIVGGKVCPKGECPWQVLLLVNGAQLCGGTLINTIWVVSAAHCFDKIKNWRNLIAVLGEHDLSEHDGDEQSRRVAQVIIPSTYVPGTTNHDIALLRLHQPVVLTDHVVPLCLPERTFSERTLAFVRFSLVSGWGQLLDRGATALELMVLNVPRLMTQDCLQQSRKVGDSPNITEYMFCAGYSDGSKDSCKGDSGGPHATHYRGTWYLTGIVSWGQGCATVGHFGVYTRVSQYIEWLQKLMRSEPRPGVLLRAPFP

[8] = Inhibition of bovine pancreatic trypsin using D-Phe-Pip-Arg-p-NA as substrate by chromogenic assay; parameters: species or system Bos taurus
[9] = target: Prothrombin (Homo sapiens, UniProt P00734); assay: Inhibition of human thrombin using D-Phe-Pip-Arg-p-NA as substrate by chromogenic assay
[10] = target: T2, Neutrophil elastase (Homo sapiens, UniProt P08246); assay: Inhibition of human neutrophil leukocyte elastase using N-(methoxysuccinyl)-Ala-Ala-Pro-Val-p-NA as substrate by chromogenic assay
T2 sequence (P08246 whole entry): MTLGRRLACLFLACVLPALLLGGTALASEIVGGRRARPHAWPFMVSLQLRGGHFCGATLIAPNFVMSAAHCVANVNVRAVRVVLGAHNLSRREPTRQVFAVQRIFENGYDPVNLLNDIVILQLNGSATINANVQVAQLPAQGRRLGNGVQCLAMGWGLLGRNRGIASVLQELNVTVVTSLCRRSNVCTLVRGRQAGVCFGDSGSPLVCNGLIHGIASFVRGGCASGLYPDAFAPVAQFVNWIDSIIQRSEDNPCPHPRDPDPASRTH

[11] = target: Chymotrypsinogen A (Bos taurus, UniProt P00766); assay: Inhibition of bovine alpha-chymotrypsin using N-succinyl-Ala-Ala-Pro-Phe-p-NA as substrate by chromogenic assay
[12] = 1-octanol-water partition coefficient, log P of the neutral form compound by HILIC analysis; assay type: physicochemical
[13] = tested on: Mus musculus; assay: Ex vivo anticoagulant activity in CD1 mouse plasma assessed as activated partial thromboplastin time at 100 mg/kg, po after 1 hr; assay type: functional
[14] = 1-octanol-water partition coefficient, log D of the compound; assay type: physicochemical
[15] = tested on: Mus musculus; assay: Ex vivo anticoagulant activity in CD1 mouse plasma assessed as activated partial thromboplastin time at 100 mg/kg, po after 2 hrs; assay type: functional

pKa [1] | Ki ([3]; read-out: Ki) | Ki [5] | SMILES | other results
6 | 26.8 µM | 91.6 µM | O=C(Nc1cccc(OCc2ccc(F)cc2)c1)C1CCN(c2ncccn2)CC1 | log Pe [2]: impermeable; log Pe [4]: impermeable
– | 8.19 µM | 12.2 µM | CN(C)Cc1ccc(COc2cccc(NC(=O)C3CCN(c4ccncc4)CC3)c2)cc1 | –
9.2 | 0.063 µM | 27 µM | O=C(Nc1cccc(OCc2cc(F)cc(F)c2)c1)C1CCN(c2ccncc2)CC1 | 2aPTT [6]: 26.3 µM; Ki [7]: > 250 µM; Ki [8]: > 250 µM; Ki [9]: 0.031 µM; Ki [10]: > 250 µM; Ki [11]: 31.4 µM; logP [12]: 5.2
– | > 250 µM | 57.3 µM | CC(=N)N1CCC(C(=O)Nc2cccc(OCc3ccc(F)cc3)c2)CC1 | –
– | > 250 µM | > 250 µM | O=C(Nc1ccccc1OCc1cccc(F)c1)C1CCN(c2ccncc2)CC1 | –
– | 1.15 µM | 7.23 µM | COc1cccc(COc2cccc(NC(=O)C3CCN(c4ccncc4)CC3)c2)c1 | –
9.8 | – | – | O=C(Nc1cccc(OCc2ccc(F)cc2)c1)C1CCNCC1 | –
– | 10 µM | 25 µM | Nc1ccc(COc2cccc(NC(=O)C3CCN(c4ccncc4)CC3)c2)cc1 | –
– | > 250 µM | 3.83 µM | Fc1cccc(COc2cccc(NCC3CCN(c4ccncc4)CC3)c2)c1 | –
– | > 250 µM | 23.6 µM | CN(C(=O)C1CCN(c2ccncc2)CC1)c1cccc(OCc2cccc(F)c2)c1 | –
9.4 | > 250 µM | > 250 µM | CC(C)N1CCC(C(=O)Nc2cccc(OCc3ccc(F)cc3)c2)CC1 | –
– | 1.3 µM | 16.4 µM | COc1ccccc1COc1cccc(NC(=O)C2CCN(c3ccncc3)CC2)c1 | –
8.5 | > 250 µM | 78 µM | O=C(Nc1cccc(OCc2ccc(F)cc2)c1)C1CCN(c2ccccn2)CC1 | –
– | 3.4 µM | 48.5 µM | O=C(Nc1cccc(OCc2ccc(C(F)(F)F)cc2)c1)C1CCN(c2ccncc2)CC1 | –
– | 39.5 µM | 7.46 µM | O=C(Nc1cccc(OCc2ccccc2)c1)C1CCN(c2ccncc2)CC1 | –
3.3 | 15.3 µM | 47.1 µM | O=C(Nc1cccc(OCc2ccc(F)cc2)c1)C1CCN(Cc2ccncc2)CC1 | log Pe [2]: impermeable; log Pe [4]: impermeable
3 | > 250 µM | 63.5 µM | Nc1ccc(N2CCC(C(=O)Nc3cccc(OCc4ccc(F)cc4)c3)CC2)cc1 | –
– | 13.3 µM | 36.1 µM | Nc1cccc(COc2cccc(NC(=O)C3CCN(c4ccncc4)CC3)c2)c1 | –
– | 0.488 µM | 2.14 µM | O=C(Nc1cccc(OCCc2cccc(F)c2)c1)C1CCN(c2ccncc2)CC1 | Ki ([3]; read-out: pKi (converted)): 18.2 µM

pKa [1] | Ki ([3]; read-out: Ki) | Ki [5] | SMILES | other results
9 | 0.006 µM | – | O=C(Nc1cccc(OCc2cccc(F)c2)c1)C1CCN(c2ccncc2)CC1 | 2aPTT [6]: 6.6 µM; Ki [7]: > 250 µM; Activity [13]: 36%; logD [14]: 3.14; Ki [8]: > 250 µM; Ki [9]: 0.016 µM; Ki [10]: 11.3 µM; Ki [11]: 6.6 µM; Activity [15]: 43%; logP [12]: 5
– | 0.26 µM | 29.6 µM | O=C(Nc1cccc(OCc2ccc(Cl)cc2)c1)C1CCN(c2ccncc2)CC1 | –
– | 26.8 µM | 6.73 µM | O=C(Nc1cccc(OCc2cccc([N+](=O)[O-])c2)c1)C1CCN(c2ccncc2)CC1 | –
9.1 | 0.124 µM | 7.73 µM | CS(=O)(=O)c1ccc(COc2cccc(NC(=O)C3CCN(c4ccncc4)CC3)c2)cc1 | 2aPTT [6]: 98.2 µM; Ki [11]: > 250 µM; logP [12]: 4.9
– | 20.9 µM | 6.31 µM | O=C(Nc1cccc(OCc2cccc(Br)c2)c1)C1CCN(c2ccncc2)CC1 | –
– | 4.64 µM | 8.8 µM | O=C(Nc1cccc(OCc2ccc(F)cc2F)c1)C1CCN(c2ccncc2)CC1 | –
– | 15.9 µM | 15.6 µM | CS(=O)(=O)c1cccc(COc2cccc(NC(=O)C3CCN(c4ccncc4)CC3)c2)c1 | –
– | 0.156 µM | > 250 µM | O=C(Nc1cccc(OCc2cccc(Cl)c2)c1)C1CCN(c2ccncc2)CC1 | –
– | 2.03 µM | 37.1 µM | O=C(Nc1cccc(OCc2ccc(Br)cc2)c1)C1CCN(c2ccncc2)CC1 | –
– | 12.3 µM | 35.1 µM | CS(=O)(=O)c1ccccc1COc1cccc(NC(=O)C2CCN(c3ccncc3)CC2)c1 | –
8.9 | 0.083 µM | 126 µM | COc1cc(COc2cccc(NC(=O)C3CCN(c4ccncc4)CC3)c2)cc(OC)c1 | 2aPTT [6]: 200 µM; Ki [11]: 33.8 µM; logP [12]: 4.9
– | 12.4 µM | 44.1 µM | O=C(Nc1cccc(CCc2cccc(F)c2)c1)C1CCN(c2ccncc2)CC1 | logD [14]: 3.58; Ki ([3]; read-out: pKi (converted)): 12.3 µM
8.9 | – | – | O=C(Nc1cccc(OCc2ccc(F)cc2)c1)C1CCN(c2ccncc2)CC1 | 2aPTT [6]: 59 µM; Ki [7]: > 250 µM; Ki [8]: > 250 µM; Ki [9]: 0.014 µM; Ki [10]: 68.7 µM; Ki [11]: 71.6 µM; logP [12]: 5.1
9.2 | 0.031 µM | 0.606 µM | COc1ccc(COc2cccc(NC(=O)C3CCN(c4ccncc4)CC3)c2)cc1OC | 2aPTT [6]: 154 µM; Ki [7]: > 250 µM; Ki [8]: 27 µM; Ki [9]: 0.755 µM; Ki [10]: > 250 µM; Ki [11]: 71.5 µM; logP [12]: 4.9
9.2 | 0.064 µM | 6.83 µM | O=C(Nc1cccc(OCc2ccccc2F)c1)C1CCN(c2ccncc2)CC1 | 2aPTT [6]: 19.8 µM; Ki [7]: > 250 µM; Ki [8]: 27 µM; Ki [9]: 0.09 µM; Ki [10]: > 250 µM; Ki [11]: 71.6 µM; logP [12]: 4.9
– | 18.2 µM | > 250 µM | O=C(Nc1cccc(COc2cccc(F)c2)c1)C1CCN(c2ccncc2)CC1 | logD [14]: 3.02
9.1 | 0.053 µM | 3.72 µM | O=C(Nc1cccc(OCc2ccc3c(c2)OCO3)c1)C1CCN(c2ccncc2)CC1 | log Pe [2]: impermeable; 2aPTT [6]: >200 µM; Ki [11]: > 250 µM; logP [12]: 4.9
– | 2.03 µM | 11.1 µM | COc1ccc(COc2cccc(NC(=O)C3CCN(c4ccncc4)CC3)c2)cc1 | –
– | 5.85 µM | 6 µM | O=C(Nc1cccc(OCc2ccc([N+](=O)[O-])cc2)c1)C1CCN(c2ccncc2)CC1 | –
